This note sets out measurements from US9657071B2, “IgE peptide vaccine” (NIPPON ZENYAKU KOGYO CO., LTD., priority 2012, dated 2017).

Common to all, as to assay type: in vivo
Test [1] concerns dog IgE. As to the kind of experiment: Intravenous administration test using rats: IgG antibody against dog IgE (ELISA). The conditions noted are these: i.v. As to the method:
The dog IgE protein (Bethyl Laboratories, Inc.; P115), the mouse IgE protein (BD Biosciences, San Jose, Calif., USA), and the human IgE protein (Athens Research And Technology, Inc.; 16-16-090705-ML) were each prepared at 1 μg/mL, 500 ng/mL, 250 ng/mL, 125 ng/mL, 62.5 ng/mL, 31.2 ng/mL, 15.6 ng/mL, 7.8 ng/mL, 3.9 ng/mL, 1.95 ng/mL, and 0.97 ng/mL in an immobilization buffer (0.05 M carbonate buffer, pH 9.6), then added at a concentration of 100 μL/well to an ELISA plate, and left overnight at 4° C. The immobilization plate was washed once with PBS-T (0.05%). A blocking solution (4× Block Ace, Snow Brand Milk Products Co., Ltd.; UK-B80) was added thereto at a concentration of 200 μL/well. The plate was blocked by incubation at 37° C. for 1.5 hours. The serum was diluted 2000-fold with a diluent (PBS-T:Block Ace=9:1) and used. The serum of an unimmunized rat was similarly diluted and used as a negative control. […] Then, the measurement was performed using a plate reader (Bio-Rad Laboratories, Inc.; model 680) (dual: measurement: 450 nm, control: 570 nm).
This peptide was used in the immunization of rats without the use of an adjuvant, and antibody response to dog IgE was evaluated. […]
Blood was collected every 2 weeks from the administer start date up to 8 weeks after the third immunization. Serum was collected, and an IgG antibody against dog IgE was evaluated by ELISA (FIG. 13). […]

Test [2] deals with dog IgE. Put plainly: Reactivity of serum of peptide-immunized rabbit with dog IgE (ELISA). As to conditions: 500 μg peptide + complete adjuvant s.c. As for the experimental part:
2 mL of the 250 μg/mL peptide (a total of 500 μg) used in Example 2 was mixed with an equal amount of a complete adjuvant (a total of 4 mL). Each rabbit was immunized with this mixture by the subcutaneous administration (amount of the peptide: 500 μg) at day 0 and weeks 2, 4, 6, and 8. Blood was collected 5 weeks after the week-8 administration (week 13 counted from day 0). Booster immunization was performed at week 14 counted from day 0, and blood was further collected 2 weeks thereafter (week 16 counted from day 0). Antibody titers in the collected blood were measured by ELISA. The serum of a rabbit that received no peptide was used as a control.
ELISA was performed by the following method: each […] recombinant CH3 solution of dog IgE, human IgE, mouse IgE, dog IgG, and cat IgE was immobilized at a concentration of 100 μL/well (100 ng/well) to a plate. The serum collected from the immunized rabbit was used (×200 to ×102400) as a primary antibody. An enzyme-labeled anti-rabbit IgG antibody (Zymed Laboratories Inc.) was used as a secondary antibody.
Target sequence in this assay (as listed by the source): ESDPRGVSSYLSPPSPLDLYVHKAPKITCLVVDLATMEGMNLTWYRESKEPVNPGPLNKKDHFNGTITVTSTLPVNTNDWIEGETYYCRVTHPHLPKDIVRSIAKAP

Test [3] has as its system Der f 2-specific IgE. As to the kind of experiment: Der f 2-specific IgE in serum of vaccinated, Der f 2-sensitized dogs. The conditions noted are these: dog. As for the experimental part: The peptide used was MOUSE CH3-4-17-11 (mouse CH3 region amino acid sequence) (SEQ ID NO: 27). 2 mL (500 μg) of a solution of the peptide (concentration: 250 μg/mL) and 2 mL of a complete adjuvant (DIFCO ADJUVANT COMPLETE FREUND, Becton, Dickinson and Company Japan) were dispensed to microtubes. Liquids (4 mL per animal) emulsified by shaking for 15 minutes in a high-speed shaker were used as IgE peptide vaccines.
The animals used were 1 male and 7 females of 5- to 7-month-old beagles and were divided into an administration group (n=4; 08-33, 08-42, 08-43, and 08-44) and a non-administration group (n=4; 08-45, 08-46, 08-47, and 08-48).
The peptide was administered at days 0 (test start date), 14, and 28 in the first course and further at days 106 and 117 in the second course. The test substance was subcutaneously administered to the necks of the 4 animals in the administration group. The non-administration group was untreated.
Four weeks after the completion of the peptide administration of the first course (days 56 and 70 into the test), all of the animals were artificially sensitized. A mixed liquid (4.0 mL per animal) of 300 μg of Der f 2 (Lot No. 3, 1465 μg/mL, prepared by a drug research team) and 50 mg of an alum adjuvant (SIGMA® Aluminium hydrate IgE1, 13 mg/mL) was used as a sensitizing solution and administered intraperitoneally for the first shot and subcutaneously to the necks for the second shot.
Four weeks after the completion of the peptide administration of the second course (day 145 into the test), the artificial sensitization was boosted. A 1-mL solution prepared from Der f 2 (Lot No. 3: 0.205 mL of 1465 μg/mL: 300 μg) with saline was subcutaneously administered to the necks of all of the animals.
At days 0, 14, 28, 42, 56, 70, 77, 84, 98, 106, 117, 131, 145, and 152 (4 time points (0, 14, 28, and 42) were excluded for the non-administration group), blood was collected from the jugular vein of each individual using a syringe. After separation of serum, the serum was used to measure peptide-specific IgG concentrations and IgE-specific IgG concentrations in the serum.
Serum obtained at days 70, 77, 106, 117, 131, 145, and 152 were used in the measurement of Der f 2-specific IgE concentrations in the serum, which was consigned to AAC Laboratories Inc.

Take “KKTSVSASQWYTKHHNNATT (listed as Mus musculus) [M4-7-11]”: the “anti-dog IgE IgG antibody titers in rat serum” value in test [1] (all dose groups, final day (8 weeks after the third vaccination day)) is 3000 times. Also, the “level of the IgG antibody against dog IgE” value in test [1] (rat, 1 mg, 500 μg, 100 μg or 50 μg per animal three times, no adjuvant, all groups) is given as “a rise in the level of the IgG antibody against dog IgE was confirmed”.

“QEKKTSVSASQWYTKHHNNATTSIT (listed as Mus musculus) [MOUSE CH3-4-17-11]”: in test [2], the “response of immobilized dog IgE to peptide-administered rabbit serum” value is reported as “responded”. Further, the “Der f 2-specific IgE in serum, administration group versus non-administration group” value in test [3] (all of the time points) is recorded as “no significant difference”. Besides, the results for the “Der f 2-specific IgE concentrations in serum, administration group” value in test [3] (day 70 (2 weeks after the first sensitization)), in test [3] (day 106 (peak)) and in test [3] (day 152 (7 days after the boosting)) were 1528.8 ± 1823.6 ng/mL, 3091.8 ± 1542.6 ng/mL and 3972.5 ± 1216.5 ng/mL, respectively. Further, the “average of Der f 2-specific IgE concentrations in the serum of the administration group” value in test [3] (day 77, 3 animals, excluding 08-43) came to 1352.3 ng/mL. In test [3] (summary of FIG. 6), the “production of IgE after subsequent sensitization” value is listed as “inhibited the production of IgE”.
